This note sets out measurements from US12403128B2, “Compositions and methods for blocking sodium channels” (University of Virginia Patent Foundation, priority 2017, dated 2025).

The term inhibition denotes the share of the control response that was lost under treatment. Read a high inhibition as a response far below the control. A word on the IC50: it is the midpoint of a concentration-inhibition curve.

The assay concerns the target Nav1.6 (Homo sapiens, UniProt Q9UQD0). The assay can be described thus: % block of Nav1.6 at 100 μM and IC50 (NaV1.6). Conditions: for inhibition at 100 µM: 100 μM compound; for IC50: NaV1.6, Table 2, MV1060-MV1091, unit inferred, read-out: IC50. In kind it is cell-based. The method, then:
Evaluation of Compounds for % Block of Nav1.6 at 100 μM
Compounds of the present invention were tested in an assay for % block of Nav1.6 at a concentration of 100 μM compound. Table 1 also indicates the melting point ranges for some compounds.
Some such compounds correspond to a compound of Formula III, wherein R9 is substituted with a halogen, a nitro or a CF3 group. In comparing MV1089, MV1090 and MV1091, it is shown that compounds of Formula III where R3 is H result in higher % block than when R3 is substituted. e.g., by OCH3. In comparing MV1066, MV1084, MV1085, MV1086, MV1087 and MV1088, it is shown that compounds of Formula III where R9 is halogen, a nitro or a CF3 group result in higher % block than when R9 is OCH3, COOH or CH3.

Where a name gives a salt, the structure may show the parent alone.

Chain of Nav1.6 (Q9UQD0 whole entry): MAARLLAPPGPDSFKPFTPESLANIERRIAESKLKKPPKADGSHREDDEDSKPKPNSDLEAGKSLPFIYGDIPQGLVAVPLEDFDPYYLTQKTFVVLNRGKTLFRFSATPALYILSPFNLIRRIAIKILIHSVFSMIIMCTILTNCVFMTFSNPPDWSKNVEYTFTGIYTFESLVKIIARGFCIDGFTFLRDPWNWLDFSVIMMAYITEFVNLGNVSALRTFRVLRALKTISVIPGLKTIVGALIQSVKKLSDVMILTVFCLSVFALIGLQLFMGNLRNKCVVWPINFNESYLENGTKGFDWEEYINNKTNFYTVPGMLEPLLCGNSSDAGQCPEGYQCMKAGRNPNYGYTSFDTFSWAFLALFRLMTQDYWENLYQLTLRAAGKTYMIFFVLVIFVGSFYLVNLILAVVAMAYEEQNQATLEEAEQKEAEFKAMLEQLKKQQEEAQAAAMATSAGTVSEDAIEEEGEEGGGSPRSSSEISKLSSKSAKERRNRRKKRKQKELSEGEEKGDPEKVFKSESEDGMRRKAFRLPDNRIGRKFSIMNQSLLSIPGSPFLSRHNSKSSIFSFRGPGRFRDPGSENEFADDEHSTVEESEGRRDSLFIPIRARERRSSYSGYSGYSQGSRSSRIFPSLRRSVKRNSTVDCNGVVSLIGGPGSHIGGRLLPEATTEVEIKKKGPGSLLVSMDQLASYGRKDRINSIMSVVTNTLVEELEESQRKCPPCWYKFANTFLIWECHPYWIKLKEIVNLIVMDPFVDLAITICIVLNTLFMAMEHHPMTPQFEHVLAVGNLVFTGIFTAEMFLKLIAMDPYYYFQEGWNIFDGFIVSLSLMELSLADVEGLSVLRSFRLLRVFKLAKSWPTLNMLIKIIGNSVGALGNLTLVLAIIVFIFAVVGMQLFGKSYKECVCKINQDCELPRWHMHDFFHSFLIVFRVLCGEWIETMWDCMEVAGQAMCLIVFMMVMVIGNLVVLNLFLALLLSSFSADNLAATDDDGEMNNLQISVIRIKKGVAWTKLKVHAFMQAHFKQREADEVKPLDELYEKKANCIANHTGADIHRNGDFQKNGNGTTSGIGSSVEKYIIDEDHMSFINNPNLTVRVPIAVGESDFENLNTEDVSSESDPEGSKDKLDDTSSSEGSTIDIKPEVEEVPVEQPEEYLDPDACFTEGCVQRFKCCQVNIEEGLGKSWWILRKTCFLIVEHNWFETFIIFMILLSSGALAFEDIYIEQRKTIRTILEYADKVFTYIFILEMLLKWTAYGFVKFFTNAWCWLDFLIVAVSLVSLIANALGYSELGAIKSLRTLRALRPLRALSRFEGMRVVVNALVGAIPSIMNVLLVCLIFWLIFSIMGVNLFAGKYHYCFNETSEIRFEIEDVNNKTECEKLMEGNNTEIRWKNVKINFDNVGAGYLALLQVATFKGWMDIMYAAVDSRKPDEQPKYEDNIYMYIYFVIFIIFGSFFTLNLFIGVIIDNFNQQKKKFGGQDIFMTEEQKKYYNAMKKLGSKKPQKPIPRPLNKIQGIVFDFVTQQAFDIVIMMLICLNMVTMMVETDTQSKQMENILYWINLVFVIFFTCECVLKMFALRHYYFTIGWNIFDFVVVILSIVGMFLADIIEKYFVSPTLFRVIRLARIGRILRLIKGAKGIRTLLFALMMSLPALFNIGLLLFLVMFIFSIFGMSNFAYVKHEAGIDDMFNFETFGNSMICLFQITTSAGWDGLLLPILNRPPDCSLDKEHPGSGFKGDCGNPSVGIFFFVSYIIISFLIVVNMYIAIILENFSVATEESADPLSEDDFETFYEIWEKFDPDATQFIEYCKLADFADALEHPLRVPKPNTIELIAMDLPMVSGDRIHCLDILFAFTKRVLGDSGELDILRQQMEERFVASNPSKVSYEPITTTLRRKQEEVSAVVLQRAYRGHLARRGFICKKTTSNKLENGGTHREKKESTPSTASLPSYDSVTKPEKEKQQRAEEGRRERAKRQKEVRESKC

Consider `c1ccc(-c2nc3ccccc3[nH]2)cc1` [MV1060, 2-Phenyl-benzimidazole], for which at 100 µM the inhibition was 30% and the IC50 was over 100 µM. Regarding `Clc1ccc(-c2nc3ccccc3[nH]2)cc1` [MV1061, 2-(4-chlorophenyl)-1H-1,3-benzodiazole], the inhibition at 100 µM was found to be 45%. Consider `Clc1ccccc1-c1nc2ccccc2[nH]1` [MV1068, 2-(2-chlorophenyl)-1H-1,3-benzodiazole], for which at 100 µM the inhibition was 75% and the IC50 is 41.6 µM.

On to `Clc1cccc(-c2nc3ccccc3[nH]2)c1` [MV1069, 2-(3-chlorophenyl)-1H-1,3-benzodiazole], for which testing at 100 µM gave an inhibition of 65% and the concentration for half-maximal inhibition (IC50) came to 37 µM. For `O=[N+]([O-])c1ccccc1-c1nc2ccccc2[nH]1` [MV1070, 2-(2-nitrophenyl)-1H-1,3-benzodiazole], in that order: 20% and over 100 µM. For `O=[N+]([O-])c1cccc(-c2nc3ccccc3[nH]2)c1` [MV1071, 2-(3-nitrophenyl)-1H-1,3-benzodiazole], in that order: 30% and over 100 µM. The like results for `O=[N+]([O-])c1ccc(-c2nc3ccccc3[nH]2)cc1` [MV1072, 2-(4-nitrophenyl)-1H-1,3-benzodiazole] were, in that order, 20% and over 100 µM. `COc1ccccc1-c1nc2ccccc2[nH]1` [MV1073, 2-(2-methoxyphenyl)-1H-1,3-benzodiazole]: testing at 100 µM gave an inhibition of 40% and the 50% inhibitory concentration (IC50) is over 100 µM. The like results for `COc1cccc(-c2nc3ccccc3[nH]2)c1` [MV1074, 2-(3-methoxyphenyl)-1H-1,3-benzodiazole] were, in that order, 40% and over 100 µM.

As to `FC(F)(F)c1ccccc1-c1nc2ccccc2[nH]1` [MV1075, 2-(2-trifluoromethyl-phenyl)-1H-1,3-benzodiazole], the inhibition at 100 µM came out at 20% and the 50% inhibitory concentration (IC50) is over 100 µM. `FC(F)(F)c1cccc(-c2nc3ccccc3[nH]2)c1` [MV1076, 2-(3-trifluoromethyl-phenyl)-1H-1,3-benzodiazole] registered an inhibition at 100 µM of 60%. On to `FC(F)(F)c1ccc(-c2nc3ccccc3[nH]2)cc1` [MV1077, 2-(4-trifluoromethyl-phenyl)-1H-1,3-benzodiazole], for which the inhibition at 100 µM came to 15% and the IC50 was over 100 µM. Regarding `O=C(O)c1ccccc1-c1nc2ccccc2[nH]1` [MV1078, 2-(1H-1,3-benzodiazol-2-yl)benzoic acid], testing at 100 µM gave an inhibition of 5% and the IC50 is over 100 µM. Consider `O=C(O)c1cccc(-c2nc3ccccc3[nH]2)c1` [MV1079, 3-(1H-1,3-benzodiazol-2-yl)benzoic acid], for which at 100 µM the inhibition was 15% and the IC50 was over 100 µM. The like results for `O=C(O)c1ccc(-c2nc3ccccc3[nH]2)cc1` [MV1080, 4-(1H-1,3-benzodiazol-2-yl)benzoic acid] were, in that order, 10% and over 100 µM.

Take `Cc1ccccc1-c1nc2ccccc2[nH]1` [MV1081, 2-(2-methylphenyl)-1H-1,3-benzodiazole]: the inhibition at 100 µM was 25% and the IC50 was over 100 µM.

As for `Cc1cccc(-c2nc3ccccc3[nH]2)c1` [MV1082, 2-(3-methylphenyl)-1H-1,3-benzodiazole], testing at 100 µM gave an inhibition of 65%. `Cc1ccc(-c2nc3ccccc3[nH]2)cc1` [MV1083, 2-(4-methylphenyl)-1H-1,3-benzodiazole]: the inhibition at 100 µM was determined as 30% and the IC50 is over 100 µM. `O=[N+]([O-])c1ccc2nc(-c3ccccc3)[nH]c2c1` [MV1084, 6-nitro-2-phenyl-1H-1,3-benzodiazole] had an inhibition at 100 µM of 70%. In the case of `COc1ccc2nc(-c3ccccc3)[nH]c2c1` [MV1085, 6-methoxy-2-phenyl-1H-1,3-benzodiazole], at 100 µM the inhibition was 35% and the IC50 is over 100 µM.

As for `FC(F)(F)c1ccc2nc(-c3ccccc3)[nH]c2c1` [MV1086, 6-trifluoromethyl-2-phenyl-1H-1,3-benzodiazole], at 100 µM the inhibition was 90% and the IC50 stood at 24.7 µM. For `O=C(O)c1ccc2nc(-c3ccccc3)[nH]c2c1` [MV1087, 2-phenyl-1H-1,3-benzodiazole-6-carboxylic acid], in that order: 0% and over 100 µM. `Cc1ccc2nc(-c3ccccc3)[nH]c2c1` [MV1088, 6-methyl-2-phenyl-1H-1,3-benzodiazole] displayed an inhibition at 100 µM of 55%.

In the case of `COc1ccccc1-c1nc2cc(Cl)ccc2[nH]1` [MV1089, 6-chloro-2-(2-methoxyphenyl]-1H-1,3-benzodiazole], the inhibition at 100 µM is 90% and the IC50 was determined as 40.1 µM. For `COc1cccc(-c2nc3cc(Cl)ccc3[nH]2)c1` [MV1090, 6-chloro-2-(3-methoxyphenyl)-1H-1,3-benzodiazole], at 100 µM the inhibition was 85% and the IC50 was found to be 29.6 µM. Consider `COc1ccc(-c2nc3cc(Cl)ccc3[nH]2)cc1` [MV1091, 6-chloro-2-(4-methoxyphenyl)-1H-1,3-benzodiazole], for which the inhibition at 100 µM came out at 0% and the IC50 was over 100 µM. As to `O=C(Nc1ccc(-c2c[nH]c(-c3ccccc3)n2)cc1)c1ccccc1` [MV1301, N-(4-[2-PHENYL-1H-IMIDAZOL-4-YL)-PHENYL]-BENZAMIDE HYDROCHLORIDE], the inhibition at 100 µM stood at 0%. Molecule `COc1ccc(-c2nc(-c3ccc(NC(=O)c4ccccc4)cc3)c[nH]2)cc1` [MV1302, N-(4-[2-(4-METHOXY-PHENYL-1H-IMIDAZOL-4-YL]-PHENYL)-BENZAMIDE HYDROCHLORIDE] displayed an inhibition at 100 µM of 20%. On to `COc1ccc(C(=O)Nc2ccc(-c3c[nH]c(-c4ccccc4)n3)cc2)cc1` [MV1303, 4-METHOXY-N-[4-[2-PHENYL-1H-IMIDAZOL-4-YL]-PHENYL]-BENZAMIDE HYDROCHLORIDE], for which the inhibition at 100 µM is 0%.

With `COc1ccc(C(=O)Nc2ccc(-c3c[nH]c(-c4ccc(OC)cc4)n3)cc2)cc1` [MV1304, 4-METHOXY-N-(4-[2-(4-METHOXY-PHENYL)-1H-IMIDAZOL-4-YL]-PHENYL)-BENZAMIDE HYDROCHLORIDE], testing at 100 µM gave an inhibition of 40%. `O=C(Nc1ccc(-c2c[nH]c(-c3ccccc3)n2)cc1)c1ccc(Cl)cc1` [MV1305, 4-CHLORO-N-[4-(2-PHENYL-1H-IMIDAZOL-4-YL)-PHENYL]-BENZAMIDE HYDROCHLORIDE] yielded an inhibition at 100 µM of 50%.

As for `COc1ccc(-c2nc(-c3ccc(NC(=O)c4ccc(Cl)cc4)cc3)c[nH]2)cc1` [MV1306, 4-CHLORO-N-(4-[2-(4-METHOXY-PHENYL)-1H-IMIDAZOL-4-YL]-PHENYL)-BENZAMIDE HYDROCHLORIDE], the inhibition at 100 µM was 10%. Still for that read-out and setting: the figure for `O=C(Nc1cccc(-c2c[nH]c(-c3ccccc3)n2)c1)c1ccccc1` [MV1307, N-[3-(2-PHENYL-1H-IMIDAZOL-4-YL)-PHENYL]-BENZAMIDE HYDROCHLORIDE] is 25%; for `COc1ccc(-c2nc(-c3cccc(NC(=O)c4ccccc4)c3)c[nH]2)cc1` [MV1308, N-(3-[2-(4-METHOXY-PHENYL)-1H-IMIDAZOL-4-YL]-PHENYL)-BENZAMIDE HYDROCHLORIDE] it is 75%.

In turn, `COc1ccc(C(=O)Nc2cccc(-c3c[nH]c(-c4ccccc4)n3)c2)cc1` [MV1309, 4-METHOXY-N-[3-[2-PHENYL-1H-IMIDAZOL-4-YL]-PHENYL]-BENZAMIDE HYDROCHLORIDE] had an inhibition at 100 µM of 75%. On to `COc1ccc(C(=O)Nc2cccc(-c3c[nH]c(-c4ccc(OC)cc4)n3)c2)cc1` [MV1310, 4-METHOXY-N-(3-[2-(4-METHOXY-PHENYL)-1H-IMIDAZOL-A-YL]-PHENYL)-BENZAMIDE HYDROCHLORIDE], for which the inhibition at 100 µM was 60%. On the same count and under the same terms, for `O=C(Nc1cccc(-c2c[nH]c(-c3ccccc3)n2)c1)c1ccc(Cl)cc1` [MV1311, 4-CHLORO-N-[3-(2-PHENYL-1H-IMIDAZOL-4-YL)-PHENYL]-BENZAMIDE HYDROCHLORIDE] the value was 90%.

The molecule `COc1ccc(-c2nc(-c3cccc(NC(=O)c4ccc(Cl)cc4)c3)c[nH]2)cc1` [MV1312, 4-CHLORO-N-(3-[2-(4-METHOXY-PHENYL)-1H-IMIDAZOL-4-YL]-PHENYL)-BENZAMIDE HYDROCHLORIDE] registered an inhibition at 100 µM of 85%. Molecule `COc1ccc(-c2ncc[nH]2)cc1` [MV1350, 2-(4-METHOXY-PHENYL)-1H-IMIDAZOLE OXALATE] came in with an inhibition at 100 µM of 25%. On the same count and under the same terms, the figure for `COc1cccc(-c2ncc[nH]2)c1` [MV1351, 2-(3-METHOXY-PHENYL)-1H-IMIDAZOLE OXALATE] is 25%. Same read-out and setting: for `COc1ccccc1-c1ncc[nH]1` [MV1352, 2-(2-METHOXY-PHENYL)-1H-IMIDAZOLE OXALATE] the value was 30%. On to `Clc1ccc(-c2ncc[nH]2)cc1` [MV1353, 2-(4-CHLORO-PHENYL)-1H-IMIDAZOLE OXALATE], for which 100 µM produced 30% inhibition. Regarding `Clc1cccc(-c2ncc[nH]2)c1` [MV1354, 2-(3-CHLORO-PHENYL)-1H-IMIDAZOLE OXALATE], the inhibition at 100 µM amounted to 20%. Same read-out and setting: for `Clc1ccccc1-c1ncc[nH]1` [MV1355, 2-(2-CHLORO-PHENYL)-1H-IMIDAZOLE OXALATE] the value was 0%; for `COc1ccc(-c2ncc(C)[nH]2)cc1` [MV1356, 2-(4-METHOXY-PHENYL)-5-METHYL-1H-IMIDAZOLE OXALATE], 65%. For the molecule `COc1cccc(-c2ncc(C)[nH]2)c1` [MV1357, 2-(3-METHOXY PHENYL)-5-METHYL-1H-IMIDAZOLE OXALATE], the inhibition at 100 µM is 90%.
